In PubChem BioAssay (NCI):
“And” between values parts separate entries of the source, which are not always exact repeats. Identical values can stand only once.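 All cell lines were grown in 96-well plates and treated with compound for 48 hours. GI50 = concentration required for 50% inhibition of growth. TGI denotes the concentration required for complete inhibition of growth.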

Key:
Experiment in all cases: NCI tumour cell line growth inhibition, 48 h
[1] = test system: SK-OV-3 ovarian
[2] = test system: UO-31 renal
[3] = test system: MALME-3M melanoma
[4] = test system: OVCAR-3 ovarian
[5] = test system: SN12C renal
[6] = test system: OVCAR-8 ovarian
[7] = test system: CAKI-1 renal
[8] = test system: HCT-15 colon
[9] = test system: SF-268 CNS
[10] = test system: IGROV1 ovarian

Structure (SMILES) | GI50 [1] [µM] | TGI [1] | GI50 [2] [µM] | TGI [2] | GI50 [3] [µM] | TGI [3] | GI50 [4] [µM] | TGI [4] | GI50 [5] [µM] | TGI [5] [µM] | GI50 [6] [µM] | TGI [6] [µM] | GI50 [7] [µM] | TGI [7] | GI50 [8] [µM] | TGI [8] [µM] | GI50 [9] [µM] | TGI [9] [µM] | GI50 [10] [µM] | TGI [10]
C=C1N(C)c2ccc(Cl)cc2C1(C)C | 18.1 | 65.4 µM | 27.9 | > 100 µM | 3.32 | 20.5 µM | 4.95 | 38.2 µM | 5.38 | 38.1 | 9.67 | > 100 | 19.2 | 68.5 µM | 29.1 | > 100 | 5.71 | > 100 | 8.35 | 65.4 µM
CCC/C(=N\NC(=O)c1cc2ccccc2cc1O)C(CC)C(=O)CCC(=O)N(Cc1ccccc1)Cc1ccccc1 (stereo unspecified) |  | > 100 µM |  | > 100 µM |  | > 100 µM |  | > 100 µM |  | > 100 |  | > 100 |  | > 100 µM |  | > 100 |  | > 100 |  | > 100 µM
S=C(N/N=C(/c1ccccc1)c1ccccn1)Nc1cccc(Cl)c1 | 0.0671 | 2.93 µM and 3.73 µM | 1.51 | 3.34 µM and 4.99 µM | 0.0169 | 2.22 µM and 5.37 µM | < 0.001 | 1.98 µM and 4.59 µM |  | 6.07 | 0.0258 | 2.87 | 0.832 | 8.78 µM and 6.33 µM | 0.142 | 5.06 | 2.33 | 16.6 | 0.28 | 2.03 µM and 6.68 µM
Cc1ccccc1/C=C1\CN(C(=O)OC(C)(C)C)C/C(=C\c2ccccc2C)C1=O | 5.77 | 70.5 µM | 1.63 | 3.09 µM | 1.81 | 3.6 µM | 1.85 | 3.65 µM | 2.7 | 6.43 | 3.49 | > 100 | 2.06 | 4.25 µM | 2.1 | 5.76 | 2.95 | 10.6 | 2.26 | 6.26 µM
COc1ccc(CNc2nc(NCc3ccc(OC)cc3)c3n[nH]c(C(C)C)c3n2)cc1 | 8.3 | 22.9 µM | 4.81 | 15 µM | 7.5 | > 100 µM | 3.04 | 14.5 µM | 9.14 | 27.7 | 12.5 | 53.6 | 6.44 | > 100 µM | 5.09 | 28.8 | 5.58 | 26.3 | 4.38 | 13.7 µM
Cc1nc2cc(N)c(Cl)cc2[nH]1 |  | > 100 µM |  | > 100 µM |  | > 100 µM |  | > 100 µM |  | > 100 |  | > 100 |  | > 100 µM |  | > 100 |  | > 100 |  | > 100 µM
N=c1ccn2c(n1)O[C@@H]1[C@@H](O)[C@H](CO)O[C@@H]12 | 2.85 | > 100 µM | 1.31 | 20.8 µM | 2.57 | > 100 µM |  | > 100 µM | 2.86 | > 100 |  | > 100 |  | > 100 µM | 11.4 | > 100 | 4.8 | > 100 | 11 | > 100 µM
COc1ccc(C#CCC(OC2OC(CO)C(O)C(O)C2O)C(O)c2ccc(OC)c(OC)c2)cc1OC (stereo unspecified) |  | > 100 µM |  | > 100 µM |  | > 100 µM |  | > 100 µM |  | > 100 |  | > 100 |  | > 100 µM |  | > 100 |  | > 100 |  | > 100 µM
Nc1c(C(=O)Nc2ccccc2)sc2nc3c(cc12)CCCC3 | 0.832 | 37.5 µM | 1.48 | > 100 µM | 0.608 | 95.2 µM | 0.481 | 12.3 µM | 1.23 | > 100 | 1.8 | > 100 | 1.13 | > 100 µM | 0.436 | > 100 | 2.2 | > 100 | 2.64 | > 100 µM
CCCN1CCN(c2ccc3nc(-c4ccc5nc(-c6ccc(OCC)c(OCC)c6)[nH]c5c4)[nH]c3c2)CC1 | 1.6 | 7.54 µM | 1.58 | 3.32 µM | 0.0647 | 1.19 µM | 0.258 | 0.622 µM | 0.526 | 2.14 | 0.451 | 2.16 | 1.02 | 3.28 µM | 1.87 | 10.3 | 1.6 | 6.1 | 0.475 | 2.42 µM
CCc1ccc(Nc2cc(C)nc3nc(C)nn23)cc1 | > 100 | > 100 µM | 23.6 | > 100 µM | 69.5 | > 100 µM | 37.8 | > 100 µM | 46.1 | > 100 | 79.8 | > 100 | 40.1 | > 100 µM | 32.8 | > 100 | 69.1 | > 100 | 61.2 | > 100 µM
CCC(/C(=N\Nc1c(Cl)cc(Cl)cc1Cl)c1ccccc1)n1ccnc1C (stereo unspecified) |  | 32.3 µM |  | 20.1 µM |  | 24.8 µM |  | 18.8 µM |  | 26.4 |  | 37.2 |  | 25.8 µM |  | 24.4 |  | 47.2 |  | 28.8 µM
CC(C)CC(=O)NS(=O)(=O)c1ccccc1 |  | > 100 µM |  | > 100 µM |  | > 100 µM |  | > 100 µM |  | > 100 |  | > 100 |  | > 100 µM |  | > 100 |  | > 100 |  | > 100 µM
COc1cc2c3c(c4c5ccccc5[nH]c4c2c(OC)c1OC)C(=O)N(CCN1CCCCC1)C3=O | 1.18 | 2.53 µM | 1.03 | 2.32 µM | 1.36 | 2.85 µM | 1.31 | 2.77 µM | 1.1 | 2.54 | 0.487 | 2.36 | 0.811 | 2.3 µM | 0.498 | 2.07 | 1.15 | 2.96 | 0.661 | 2.22 µM
CCN(CC)CC(O)C1CCC(c2ccccc2)CC1 (stereo unspecified) |  | 36.6 µM |  | 32.3 µM |  | 32.3 µM |  | > 100 µM |  | > 100 |  | 59.7 |  | 42.2 µM |  | 42.3 |  | > 100 |  | > 100 µM
CC(=O)c1ccc(NCN2C(=O)c3ccccc3C2=O)cc1 |  | > 100 µM |  | > 100 µM |  | > 100 µM |  | > 100 µM |  | > 100 |  | > 100 |  | > 100 µM |  | > 100 |  | > 100 |  | > 100 µM
C=C(CN1CCN(c2cccc(F)c2)CC1)c1ccc(C(=O)Nc2ccccc2N)cc1 | 5.31 | > 100 µM | 1.31 | 10.2 µM | 1.83 | 68 µM | 1.94 | 17.7 µM | 2.74 | > 100 | 1.99 | 47.9 | 0.629 | 7.74 µM | 1.02 | > 100 | 2.3 | > 100 | 0.333 | 3.9 µM
O=C(c1ccc2c3c(ccc(C(=O)C(F)(F)F)c13)CC2)C(F)(F)F |  | > 100 µM |  | > 100 µM |  | > 100 µM |  | > 100 µM |  | > 100 |  | > 100 |  | > 100 µM |  | > 100 |  | > 100 |  | > 100 µM
O=C(/C=C/c1cccnc1)c1ccccc1O | 33.7 | > 100 µM | 13.4 | 28.9 µM | 22.2 | 62.9 µM | 20.5 | 55.2 µM | 24.4 | 81.9 | 31.5 | > 100 | 17.3 | 42.4 µM | 15.6 | 41 | 26.9 | 97.6 | 20.1 | 50 µM
CCN(CC)CCOc1ccc(C(=C2CCCCC2)c2ccc(OCCN(CC)CC)cc2)cc1 |  | 3.52 µM |  | 2.96 µM |  | 3.13 µM |  | 3.62 µM |  | 3.09 |  | 3.13 |  | 3.7 µM |  | 2.91 |  | 3.23 |  | 3.58 µM
CN1CCCN(C(c2ccccc2)c2ccc(Br)cc2)CC1 (stereo unspecified) | 3.66 | 14.5 µM | 2.65 | 16 µM | 2.57 | 11.8 µM | 2.83 | 10.2 µM | 3.51 | 12.5 | 6.5 | 21 | 3.24 | 13.4 µM | 3.49 | 14 | 2.76 | 8.97 | 8.83 | 22.1 µM
Cn1c(=S)sc2nc3ccccc3n2c1=S |  | 36.5 µM |  | 18.8 µM |  | 31.2 µM |  | 25.4 µM |  | 39.1 |  | 30.1 |  | 39.2 µM |  | 29.4 |  | 24.7 |  | 30.9 µM
O=C(CN1CCN(c2ccc(Cl)cc2)CC1)N1CCN(c2nnc(-c3ccccc3)c(-c3ccccc3)n2)CC1 | 75.7 | > 100 µM | 4.41 | > 100 µM | 2.7 | > 100 µM | 8.38 | > 100 µM | 8.23 | > 100 | 52.4 | > 100 | 4.93 | > 100 µM | 5.12 | > 100 | > 100 | > 100 | 42.9 | > 100 µM
O=C1c2ccccc2C(=O)c2c1ccc1c2OCO1 |  | > 100 µM |  | > 100 µM |  | > 100 µM |  | > 100 µM |  | > 100 |  | > 100 |  | > 100 µM |  | > 100 |  | > 100 |  | > 100 µM
